From patent US10478437B2, “Combination therapy to enhance the anticancer efficacy of platinum drugs” (University of Pittsburgh-of the Commonwealth System of …, priority 2014, dated 2019)

Columns and labels:
[1] = tested on: Bax/Bak wildtype (WT) and double knockout (DKO) MEF cells; assay: Western blot of Caspase-8, 9 and 3 cleavage in Bax/Bak WT and DKO cells; assay type: cell-based, mouse; conditions: compound 20 μM + cisplatin 10 μM, 20 h, FIG. 8C; in words
Method: (§1) Whole cell lysate was prepared by lysing cells in cell lysis buffer (Cell signaling technology) containing complete protease inhibitor (Roche). Cell lysates were then cleared at 15,000 rpm for 15 min at 4° C. The protein content was quantified using a Bio-Rad Protein Assay kit (Bio-Rad Laboratories, Hercules, Calif.). The equal amount of protein was separated on Tris-glycine gels (Invitrogen). The separated proteins were blotted onto a polyvinylidene difluoride membrane and blocked overnight at 4° C. in phosphate-buffered saline containing 0.1% Tween 20 and 10% nonfat dry milk (blocking buffer). Membranes were incubated with primary antibodies in blocking buffer overnight at 4° C. Primary antibodies used were: β-actin from Sigma; Bax, Bak, Caspase-9 and cleaved Caspase-3 from Cell Signaling Technology; phospho-Histone H2AX (Ser 139) and Noxa from Millipore. Membranes were then washed and incubated in peroxidase conjugated anti-rabbit IgG (Sigma) or anti-mouse IgG (Sigma) secondary antibody for 1 h at room temperature. Membranes were developed using SuperSignal West Femto Maximum Sensitivity Substrate (Thermo Fisher Scientific).
In order to understand the role of Bax and Bak in the efficacy of cisplatin and compound 1-6, Bax/Bak double knockout (DKO) SV40-transformed MEF cells were used. […] The cleavage of Caspase-8, 9, and 3 were determined by western blot.

[2] = tested on: PEO4, SKOV3, H1299, MDA-MB-231, Ca133 cells; assay: Western blot of PARP and Caspase-3 cleavage in other cisplatin-resistant cancer cells; assay type: cell-based, human; conditions: 20 h, FIG. 9, in words
Method: FIG. 9. The combination of cisplatin and compound 1-6 triggers extensive apoptosis in various types of cisplatin- and multidrug-resistant tumor cells. Cisplatin-resistant cancer cells PEO4 (ovarian), SKOV3 (ovarian), H1299 (lung), MDA-MB-231 (breast), Ca133 (head & neck) were treated with DMSO (untreated), cisplatin (20 μM) alone, compound 1-6 (20 μM) alone, or the combination for 20 h. Cleavage of PARP and Caspase-3 were determined by western blot.
as §1
To evaluate whether the synergistic effects of the disclosed compounds and cisplatin could be extended to other types of cancer cells, breast cancer cells (MDA-MB-231), non-small cell lung carcinoma cells (H-1299), ovarian cancer cells (PEO4 and SKOV3) and head and neck cancer cells (Ca133) were treated with various combinations of cisplatin and compound 1-6 and analyzed for Caspase-3.

A2780cis cells = assay: Extracellular flux analysis, oxygen consumption rate (OCR), Seahorse XF24; assay type: cell-based, human; conditions: compound 50 μM + cisplatin 50 μM, 4 h, FIG. 8B; in words
Method: Oxygen consumption rate (OCR) and extracellular acidification rate (ECAR) were measured as previously described (Qian and Van Houten, 2010). Cells were seeded in XF24 cell culture plates at 4×10^4 cells/well and incubated in 5% CO2 at 37° C. Prior to the analysis, cells were washed and growth medium was replaced with bicarbonate-free modified RPMI 1640 medium, the “assay medium” (Molecular Devices, Sunnyvale, Calif.). Cells were then incubated for another 60 min in a 37° C. incubator without CO2. OCR and ECAR measurements were then performed simultaneously using a Seahorse XF24 Extracellular Flux Analyzer (Seahorse Bioscience, North Billerica, Mass.).
To determine the effects of the compounds on DNA damage and mitochondrial dysfunction, A2780cis cells were treated with cisplatin (20 μM) alone or the combination of cisplatin with 20 μM of compound 1-6. Replication protein A (RPA) is a single strand-specific DNA-binding protein, consisting of three subunits, RPA70, RPA32, and RPA14. RPA32 is phosphorylated in response to DNA replication stress. Western blot analysis was performed to evaluate the phosphorylation of RPA32 and histone H2AX, the induction of Noxa expression and cleavage of caspase-3. […] The oxygen consumption rate (OCR) was measured by a Seahorse extracellular flux analyzer.

## CCOCCCn1c(=S)[nH]c2c(C)cccc2c1=O [Compound 1-6]
[1]
  cleavage of caspases in Bax/Bak WT and DKO MEF cells, combination with cisplatin: cleavage of Caspase 3 and 9 independent of Bax or Bak activity
[2]; 20 μM alone
  cell death after single compound exposure: minimal effect in inducing cell death
[2]; compound 20 μM + cisplatin 20 μM
  cleavage of Caspase 3 and PARP, combination with cisplatin: cleavage of Caspase 3 and PARP was observed
A2780cis cells
  mitochondrial function (OCR, response to oligomycin) after combination with cisplatin: uncoupling of mitochondria was observed
